Laboratory results from the supplement of paper PMC3770661.
Counter-ions that a name gives are not always drawn. ± gives the uncertainty stated by the source.

Tested on: HepG2 (L1.3 5'UTR promoter firefly luciferase reporter)
Experiment: L1 promoter activity (FLuc/RLuc) relative to DMSO vehicle control (% of control); higher = stronger L1 promoter activation
Method: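 HepG2 cells in 96-well plates were cotransfected with pGL4.11-L1.3 5'UTR (firefly luciferase driven by the human L1.3 5'UTR promoter) and pGL4.74 (HSV-TK Renilla luciferase internal control), then treated with compound for 6 or 24 h. FLuc/RLuc ratio was normalised to the DMSO vehicle control (% of control); concentrations where RLuc fell below 50% of control were excluded (N.D.). Mean of at least two independent experiments in duplicate or quadruplicate.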

[1] = concentration (uM unless unit written): 250, treatment time: 6 h
[2] = concentration (uM unless unit written): 500, treatment time: 6 h
[3] = concentration (uM unless unit written): 500, treatment time: 24 h
[4] = concentration (uM unless unit written): 1000, treatment time: 6 h
[5] = concentration (uM unless unit written): 0.5, treatment time: 6 h
[6] = concentration (uM unless unit written): 0.5, treatment time: 24 h
[7] = concentration (uM unless unit written): 1, treatment time: 6 h
[8] = concentration (uM unless unit written): 1, treatment time: 24 h
[9] = concentration (uM unless unit written): 10, treatment time: 6 h
[10] = concentration (uM unless unit written): 50, treatment time: 6 h
[11] = concentration (uM unless unit written): 100, treatment time: 6 h
[12] = concentration (uM unless unit written): 1000, treatment time: 24 h
[13] = concentration (uM unless unit written): 10, treatment time: 24 h
[14] = concentration (uM unless unit written): 100, treatment time: 24 h

Structure (SMILES): Cc1c2oc3c(C)ccc(C(=O)N[C@@H]4C(=O)N[C@H](C(C)C)C(=O)N5CCC[C@H]5C(=O)N(C)CC(=O)N(C)[C@@H](C(C)C)C(=O)O[C@@H]4C)c3nc-2c(C(=O)N[C@@H]2C(=O)N[C@H](C(C)C)C(=O)N3CCC[C@H]3C(=O)N(C)CC(=O)N(C)[C@@H](C(C)C)C(=O)O[C@@H]2C)c(N)c1=O [Actinomycin D]
- L1 promoter activity (concentration (uM unless unit written): 0.0025, treatment time: 6 h): 132 ± 34
- L1 promoter activity (concentration (uM unless unit written): 0.005, treatment time: 6 h): 112 ± 12
- L1 promoter activity (concentration (uM unless unit written): 0.01, treatment time: 6 h): 110 ± 36
- L1 promoter activity (concentration (uM unless unit written): 0.01, treatment time: 24 h): 144 ± 19

Structure (SMILES): CCC1(c2ccc(N)cc2)CCC(=O)NC1=O (configuration not stated) [Aminoglutethimide]
- L1 promoter activity [1]: 140 ± 58
- L1 promoter activity (concentration (uM unless unit written): 250, treatment time: 24 h): 126 ± 11
- L1 promoter activity [2]: 136 ± 35
- L1 promoter activity [3]: 102 ± 16
- L1 promoter activity [4]: 96 ± 7.4

Structure (SMILES): CCOC(=O)C1=C(COCCN)NC(C)=C(C(=O)OC)C1c1ccccc1Cl (configuration not stated) [Amlodipine besylate]
- L1 promoter activity [5]: 93.6 ± 11
- L1 promoter activity [6]: 105 ± 8.9
- L1 promoter activity [7]: 104 ± 10
- L1 promoter activity [8]: 101 ± 22
- L1 promoter activity (concentration (uM unless unit written): 2, treatment time: 6 h): 95.7 ± 7.8
- L1 promoter activity (concentration (uM unless unit written): 2, treatment time: 24 h): 107 ± 12
- L1 promoter activity [9]: 85.2 ± 8.2

Structure (SMILES): CCCCCC[C@H]1C(=O)O[C@H](C)[C@H](NC(=O)c2cccc(NC=O)c2O)C(=O)O[C@@H](C)[C@@H]1OC(=O)CC(C)C [Antimycin A]
- L1 promoter activity (concentration (uM unless unit written): 0.075, treatment time: 6 h): 101 ± 17
- L1 promoter activity (concentration (uM unless unit written): 0.075, treatment time: 24 h): 115 ± 21
- L1 promoter activity [7]: 101 ± 5.7
- L1 promoter activity [8]: 109 ± 8.4

Structure (SMILES): Cc1cn([C@H]2C[C@H](N=[N+]=[N-])[C@@H](CO)O2)c(=O)[nH]c1=O [Azidothymidine]
- L1 promoter activity [10]: 107 ± 25
- L1 promoter activity [11]: 106 ± 26
- L1 promoter activity (concentration (uM unless unit written): 200, treatment time: 6 h): 111 ± 27
- L1 promoter activity (concentration (uM unless unit written): 200, treatment time: 24 h): 104 ± 13
- L1 promoter activity [12]: 110 ± 7.2

Structure (SMILES): c1ccc2c(c1)cc1ccc3cccc4ccc2c1c34 [Benzo(a)pyrene]
- L1 promoter activity [5]: 102 ± 12
- L1 promoter activity [6]: 132 ± 17
- L1 promoter activity [7]: 117 ± 12
- L1 promoter activity [8]: 140 ± 22
- L1 promoter activity (concentration (uM unless unit written): 3, treatment time: 6 h): 133 ± 18
- L1 promoter activity (concentration (uM unless unit written): 3, treatment time: 24 h): 187 ± 37

Structure (SMILES): CC(C)(Oc1ccc(CCNC(=O)c2ccc(Cl)cc2)cc1)C(=O)O [Bezafibrate]
- L1 promoter activity [9]: 115 ± 13
- L1 promoter activity [13]: 105 ± 4.7
- L1 promoter activity [11]: 140 ± 11
- L1 promoter activity [14]: 133 ± 13
- L1 promoter activity [4]: 174 ± 14

Structure (SMILES): CN(Cc1cc(Br)cc(Br)c1N)C1CCCCC1 [Bromhexine hydrochloride]
- L1 promoter activity (concentration (uM unless unit written): 62.5, treatment time: 6 h): 108 ± 14
- L1 promoter activity (concentration (uM unless unit written): 62.5, treatment time: 24 h): 102 ± 7.2
- L1 promoter activity (concentration (uM unless unit written): 125, treatment time: 6 h): 97.8 ± 12
- L1 promoter activity (concentration (uM unless unit written): 125, treatment time: 24 h): 98.7 ± 12

Structure (SMILES): CS(=O)(=O)OCCCCOS(C)(=O)=O [Busulfan]
- L1 promoter activity [11]: 111 ± 33
- L1 promoter activity [1]: 119 ± 29
- L1 promoter activity [2]: 131 ± 39
- L1 promoter activity [3]: 122 ± 39

Structure (SMILES): CC[C@@]1(O)C(=O)OCc2c1cc1n(c2=O)Cc2cc3ccccc3nc2-1 [Camptothecin]
- L1 promoter activity (concentration (uM unless unit written): 0.05, treatment time: 6 h): 110 ± 17
- L1 promoter activity (concentration (uM unless unit written): 0.05, treatment time: 24 h): 142 ± 21
- L1 promoter activity (concentration (uM unless unit written): 0.1, treatment time: 6 h): 98.1 ± 16
- L1 promoter activity (concentration (uM unless unit written): 0.1, treatment time: 24 h): 135 ± 21
- L1 promoter activity (concentration (uM unless unit written): 0.3, treatment time: 6 h): 103 ± 22
- L1 promoter activity (concentration (uM unless unit written): 0.3, treatment time: 24 h): 152 ± 13

Structure (SMILES): ClC(Cl)(Cl)Cl [Carbon tetrachloride]
- L1 promoter activity [2]: 99.7 ± 5.5
- L1 promoter activity [3]: 91.3 ± 3.6
- L1 promoter activity [4]: 111 ± 5.9
- L1 promoter activity [12]: 90.7 ± 12
- L1 promoter activity (concentration (uM unless unit written): 2000, treatment time: 6 h): 108 ± 8.1
- L1 promoter activity (concentration (uM unless unit written): 2000, treatment time: 24 h): 98.4 ± 8.2

Structure (SMILES): N.N.[Cl][Pt][Cl] [Cisplatin]
- L1 promoter activity [9]: 109 ± 13
- L1 promoter activity [13]: 98.4 ± 13
- L1 promoter activity [10]: 117 ± 23
- L1 promoter activity (concentration (uM unless unit written): 50, treatment time: 24 h): 105 ± 7.7
- L1 promoter activity [11]: 148 ± 40
- L1 promoter activity [14]: 95.4 ± 19

Structure (SMILES): CC1=C2C(=CO[C@H](C)[C@H]2C)C(O)=C(C(=O)O)C1=O [Citrinin]
- L1 promoter activity (concentration (uM unless unit written): 45, treatment time: 6 h): 101 ± 12
- L1 promoter activity (concentration (uM unless unit written): 45, treatment time: 24 h): 104 ± 14
- L1 promoter activity (concentration (uM unless unit written): 90, treatment time: 6 h): 102 ± 10
- L1 promoter activity (concentration (uM unless unit written): 90, treatment time: 24 h): 134 ± 25

Structure (SMILES): CCOC(=O)C(C)(C)Oc1ccc(Cl)cc1 [Clofibrate]
- L1 promoter activity [9]: 113 ± 11
- L1 promoter activity [13]: 112 ± 7.9
- L1 promoter activity [11]: 102 ± 11
- L1 promoter activity [14]: 100 ± 9.5
- L1 promoter activity [4]: 106 ± 17
- L1 promoter activity [12]: 132 ± 23
